Common to all, as to format: in vivo
In assay [1] the test system is Ipomoea hederacea (IPOHE). Briefly: Herbicidal efficacy, pre-emergence application (glasshouse). The following applies: evaluated visually after 13 days, 100=total damage, 0=no damage; for pest or weed control at 250 g/ha: Ipomoea hederacea, 312 h, read-out: percentage phytotoxicity to the plant, IPOHE. How it is done:
(§1) Seeds of a variety of test species [Ipomoea hederacea (IPOHE); Zea mays (ZEAMX); Echinochloa crus-galli (ECHCG); Setaria faberi (SETFA); Abutilon theophrasti (ABUTH); Amaranthus retroflexus (AMARE)] were sown in standard sterilised soil in pots. After cultivation for one day (pre-emergence) or after 8 days cultivation (post-emergence) under controlled conditions in a glasshouse (at 24/16° C., day/night; 14 hours light; 65% humidity), the plants were sprayed with an aqueous spray solution derived from the formulation of the technical active ingredient in acetone/water (50:50) solution containing 0.5% Tween 20 (polyoxyethelyene sorbitan monolaurate, CAS RN 9005-64-5), subsequently diluted in water, and sprayed to give the stated application rate.
(§2) The test plants were then grown under controlled conditions in a glasshouse (at 24/16° C., day/night; 14 hours light; 65% humidity) and watered twice daily.
(§3) After 13 days for pre and post-emergence, the test was evaluated visually for percentage phytotoxicity to the plant (where 100=total damage to plant; 0=no damage to plant).

For assay [2], the system named is Echinochloa crus-galli (ECHCG). The assay is described as above. The note with it: evaluated visually after 13 days, 100=total damage, 0=no damage; for pest or weed control at 250 g/ha: Echinochloa crus-galli, 312 h, read-out: percentage phytotoxicity to the plant, ECHCG. How it is done:
as §1, §2, §3

In assay [3] the test system is Zea mays (ZEAMX). The description is as above. The note with it: evaluated visually after 13 days, 100=total damage, 0=no damage; for plant injury at 250 g/ha: Zea mays, 312 h, read-out: percentage phytotoxicity to the plant, ZEAMX. As to the method:
as §1, §2, §3

The test system of assay [4] is Setaria faberi (SETFA). Described as above. The following applies: evaluated visually after 13 days, 100=total damage, 0=no damage; for pest or weed control at 250 g/ha: Setaria faberi, 312 h, read-out: percentage phytotoxicity to the plant, SETFA. As to the method:
as §1, §2, §3

The test system of assay [5] is Amaranthus retroflexus (AMARE). The assay is described as above. The following applies: evaluated visually after 13 days, 100=total damage, 0=no damage; for pest or weed control at 250 g/ha: Amaranthus retroflexus, 312 h, read-out: percentage phytotoxicity to the plant, AMARE. As to the method: as §1, §2, §3
Assay [6] concerns Abutilon theophrasti (ABUTH). Described as above. The following applies: evaluated visually after 13 days, 100=total damage, 0=no damage; for pest or weed control at 250 g/ha: Abutilon theophrasti, 312 h, read-out: percentage phytotoxicity to the plant, ABUTH. As to the method: as §1, §2, §3
Assay [7] deals with Ipomoea hederacea (IPOHE). As to the kind of experiment: Herbicidal efficacy, post-emergence application (glasshouse). The following applies: evaluated visually after 13 days, 100=total damage, 0=no damage; for pest or weed control at 250 g/ha: Ipomoea hederacea, 312 h, read-out: percentage phytotoxicity to the plant, IPOHE. How it is done:
as §1, §2, §3

In assay [8] the test system is Echinochloa crus-galli (ECHCG). Described as above. The note with it: evaluated visually after 13 days, 100=total damage, 0=no damage; for pest or weed control at 250 g/ha: Echinochloa crus-galli, 312 h, read-out: percentage phytotoxicity to the plant, ECHCG. As to the method: as §1, §2, §3
Assay [9] has as its system Zea mays (ZEAMX). Described as above. The following applies: evaluated visually after 13 days, 100=total damage, 0=no damage; for plant injury at 250 g/ha: Zea mays, 312 h, read-out: percentage phytotoxicity to the plant, ZEAMX. How it is done: as §1, §2, §3
Assay [10] concerns Setaria faberi (SETFA). The assay is described as above. The following applies: evaluated visually after 13 days, 100=total damage, 0=no damage; for pest or weed control at 250 g/ha: Setaria faberi, 312 h, read-out: percentage phytotoxicity to the plant, SETFA. How it is done:
as §1, §2, §3

For assay [11], the system named is Amaranthus retroflexus (AMARE). The description is as above. The following applies: evaluated visually after 13 days, 100=total damage, 0=no damage; for pest or weed control at 250 g/ha: Amaranthus retroflexus, 312 h, read-out: percentage phytotoxicity to the plant, AMARE. As to the method:
as §1, §2, §3

The subject of assay [12] is Abutilon theophrasti (ABUTH). The description is as above. The note with it: evaluated visually after 13 days, 100=total damage, 0=no damage; for pest or weed control at 250 g/ha: Abutilon theophrasti, 312 h, read-out: percentage phytotoxicity to the plant, ABUTH. As to the method: as §1, §2, §3

Regarding `CN1C[C@H](c2cc(C(F)(F)F)n(C)n2)[C@@H](C(=O)Nc2cccc(F)c2OC(F)F)C1=O` [Compound 2.10, (3S,4R)-N-[2-(difluoromethoxy)-3-fluoro-phenyl]-1-methyl-4-[1-methyl-5-(trifluoromethyl)pyrazol-3-yl]-2-oxo-pyrrolidine-3-carboxamide], the pest or weed control at 250 g/ha in assay [1] is 20%; in assay [2], 90%; in the assay on Setaria faberi (SETFA) [4], 90%; in assay [5], 0%; in assay [6], 0%; in assay [7], 30%. Further, the pest or weed control at 250 g/ha came out at 80% in assay [8], 80% with Setaria faberi (SETFA) [10], 0% in [11] and 0% in [12]. The plant injury at 250 g/ha turned out to be 40% in the assay with Zea mays (ZEAMX) [3] and 80% with Zea mays (ZEAMX) [9].
Consider `CCc1ccccc1NC(=O)[C@H]1C(=O)N(C)C[C@@H]1c1cc(C(F)(F)F)n(C)n1` [Compound 2.11, (3S,4R)-N-(2-ethylphenyl)-1-methyl-4-[1-methyl-5-(trifluoromethyl)pyrazol-3-yl]-2-oxo-pyrrolidine-3-carboxamide], for which the pest or weed control at 250 g/ha worked out at 0% in assay [1]; 90% in assay [2]; 90% with Setaria faberi (SETFA) [4]; 70% in assay [5]; 0% in assay [6]; 0% in assay [7]. Moreover, the pest or weed control at 250 g/ha was 80% in assay [8], 80% in the assay on Setaria faberi (SETFA) [10], 20% in assay [11] and 0% in assay [12]. Moreover, the plant injury at 250 g/ha was 20% with Zea mays (ZEAMX) [3] and 0% in the assay on Zea mays (ZEAMX) [9].
On to `CN1C[C@H](c2cnn(C)c2C(F)(F)F)[C@@H](C(=O)Nc2cccc(F)c2F)C1=O` [Compound 2.15, (3S,4S)-N-(2,3-difluorophenyl)-1-methyl-4-[1-methyl-5-(trifluoromethyl)pyrazol-4-yl]-2-oxo-pyrrolidine-3-carboxamide], for which the pest or weed control at 250 g/ha was found to be 20% in assay [1]; 100% in assay [2]; 100% in the assay with Setaria faberi (SETFA) [4]; 0% in [5]; 40% in assay [6]; 40% in assay [7]. The pest or weed control at 250 g/ha in assay [8] is 80%; with Setaria faberi (SETFA) [10], 80%; in assay [11] it was 0%; in assay [12] it was 0%. Besides, the plant injury at 250 g/ha in the assay on Zea mays (ZEAMX) [3] was found to be 40%; in the assay with Zea mays (ZEAMX) [9] it was 30%.
For the compound “(3S,4R)-N-[2-(1,1-difluoroethyl)-3-fluoro-phenyl]-1-methyl-4-[1-methyl-5-(trifluoromethyl)pyrazol-3-yl]-2-oxo-pyrrolidine-3-carboxamide [Compound 2.12]”, the “percentage phytotoxicity to the plant, IPOHE” value in [1] (250 g/ha) was 70%; in assay [7] (250 g/ha), 50%. In addition, the “percentage phytotoxicity to the plant, ECHCG” value in assay [2] (250 g/ha) and in assay [8] (250 g/ha) was 90% each time. Also, the “percentage phytotoxicity to the plant, ZEAMX” value is listed as 90% in the assay on Zea mays (ZEAMX) [3] (250 g/ha) and 80% with Zea mays (ZEAMX) [9] (250 g/ha). The “percentage phytotoxicity to the plant, SETFA” value in the assay on Setaria faberi (SETFA) [4] (250 g/ha) and with Setaria faberi (SETFA) [10] (250 g/ha) was 90% in each case. In addition, the “percentage phytotoxicity to the plant, AMARE” value in assay [5] (250 g/ha) and in assay [11] (250 g/ha) was 0% throughout. Further, the “percentage phytotoxicity to the plant, ABUTH” value in [6] (250 g/ha) and in assay [12] (250 g/ha) was 0% in each case.

For the origin of these results see patent publication US11472792B2, “Herbicidal mixtures” (SYNGENTA CROP PROTECTION AG, priority 2019, dated 2022).
